Results reported in ChEMBL document CHEMBL1201862, “PubChem BioAssay data set” (2004).
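Step 1: Grow cells in 96-well plates. Step 2: Expose to compound for 48 hours at 5 concentrations. Step 3: Interpolate endpoints linearly; if unreached, use highest concentration. GI50 marks 50% less growth.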 Activity calls are given as the source filed them. Rule as the data show it: active = GI50 up to about 1.1 µM and inactive = higher.

How the values were obtained:
Test in all cases: inhibition of tumour cell growth, NCI panel, 48 h
DU-145 = test system: DU-145
MDA-MB-231 = test system: MDA-MB-231
HOP-62 = test system: HOP-62
OVCAR-8 = test system: OVCAR-8
A498 = test system: A498
HCT-15 = test system: HCT-15
CAKI-1 = test system: CAKI-1
RPMI-8226 = test system: RPMI-8226
ACHN = test system: ACHN
Malme-3M = test system: Malme-3M
HT-29 = test system: HT-29
PC-3 = test system: PC-3
SF-295 = test system: SF-295
HCC 2998 = test system: HCC 2998
SW-620 = test system: SW-620
RXF 393 = test system: RXF 393
EKVX = test system: EKVX
SR = test system: SR
TK-10 = test system: TK-10
OVCAR-5 = test system: OVCAR-5
BT-549 = test system: BT-549
OVCAR-3 = test system: OVCAR-3
SK-MEL-28 = test system: SK-MEL-28
IGROV-1 = test system: IGROV-1
SF-539 = test system: SF-539
OVCAR-4 = test system: OVCAR-4
NCI-H460 = test system: NCI-H460
Hs-578T = test system: Hs-578T
UACC-257 = test system: UACC-257
MDA-MB-435 = test system: MDA-MB-435
SNB-75 = test system: SNB-75
LOX IMVI = test system: LOX IMVI
NCI-H226 = test system: NCI-H226
NCI-H522 = test system: NCI-H522
UO-31 = test system: UO-31
SK-MEL-5 = test system: SK-MEL-5
MCF7 = test system: MCF7
A549 = test system: A549
HOP-92 = test system: HOP-92
KM12 = test system: KM12
NCI-H23 = test system: NCI-H23
SF-268 = test system: SF-268
U-251 = test system: U-251
SN12C = test system: SN12C
MDA-N = test system: MDA-N
COLO 205 = test system: COLO 205
HL-60 = test system: HL-60
CCRF-CEM = test system: CCRF-CEM
MOLT-4 = test system: MOLT-4
786-0 = test system: 786-0
HCT-116 = test system: HCT-116
NCI/ADR-RES = test system: NCI/ADR-RES
SNB-19 = test system: SNB-19
UACC-62 = test system: UACC-62
M14 = test system: M14
SK-OV-3 = test system: SK-OV-3
SK-MEL-2 = test system: SK-MEL-2
T47D = test system: T47D

SMILES: CC(C)(C)OC(=O)NC(Cc1ccc(O)cn1)C(N)=O (stereo unspecified)
- GI50 (DU-145): > 100 µM (inactive)
- GI50 (MDA-MB-231): > 100 µM (inactive)
- GI50 (HOP-62): > 100 µM (inactive)
- GI50 (OVCAR-8): > 100 µM (inactive)
- GI50 (A498): > 100 µM (inactive)
- GI50 (HCT-15): > 100 µM
- GI50 (CAKI-1): > 100 µM (inactive)
- GI50 (RPMI-8226): > 100 µM (inactive)
- GI50 (ACHN): > 100 µM (inactive)
- GI50 (Malme-3M): > 100 µM (inactive)
- GI50 (HT-29): > 100 µM (inactive)
- GI50 (PC-3): > 100 µM (inactive)
- GI50 (SF-295): > 100 µM (inactive)
- GI50 (HCC 2998): > 100 µM (inactive)
- GI50 (SW-620): > 100 µM (inactive)
- GI50 (RXF 393): > 100 µM (inactive)
- GI50 (EKVX): > 100 µM (inactive)
- GI50 (SR): > 100 µM (inactive)
- GI50 (TK-10): > 100 µM (inactive)
- GI50 (OVCAR-5): > 100 µM (inactive)
- GI50 (BT-549): > 100 µM (inactive)
- GI50 (OVCAR-3): > 100 µM (inactive)
- GI50 (SK-MEL-28): > 100 µM (inactive)
- GI50 (IGROV-1): > 100 µM (inactive)
- GI50 (SF-539): > 100 µM (inactive)
- GI50 (OVCAR-4): > 100 µM (inactive)
- GI50 (NCI-H460): > 100 µM (inactive)
- GI50 (Hs-578T): > 100 µM (inactive)
- GI50 (UACC-257): > 100 µM (inactive)
- GI50 (MDA-MB-435): > 100 µM (inactive)
- GI50 (SNB-75): > 100 µM (inactive)
- GI50 (LOX IMVI): > 100 µM (inactive)
- GI50 (NCI-H226): > 100 µM (inactive)
- GI50 (NCI-H522): > 100 µM (inactive)
- GI50 (UO-31): > 100 µM (inactive)
- GI50 (SK-MEL-5): > 100 µM (inactive)
- GI50 (MCF7): > 100 µM (inactive)
- GI50 (A549): > 100 µM (inactive)
- GI50 (HOP-92): > 100 µM (inactive)
- GI50 (KM12): > 100 µM (inactive)
- GI50 (NCI-H23): > 100 µM (inactive)
- GI50 (SF-268): > 100 µM (inactive)
- GI50 (U-251): > 100 µM (inactive)
- GI50 (SN12C): > 100 µM (inactive)
- GI50 (MDA-N): > 100 µM (inactive)
- GI50 (COLO 205): > 100 µM (inactive)
- GI50 (HL-60): > 100 µM (inactive)
- GI50 (CCRF-CEM): > 10 µM (inactive)
- GI50 (MOLT-4): > 100 µM (inactive)
- GI50 (786-0): > 100 µM (inactive)
- GI50 (HCT-116): > 100 µM (inactive)
- GI50 (NCI/ADR-RES): > 100 µM (inactive)
- GI50 (SNB-19): > 100 µM (inactive)

SMILES: c1cc2nnc1SCCSCCSCCSc1ccc(nn1)SCCSCCSCCS2
- GI50 (UACC-62): > 100 µM (inactive)
- GI50 (MDA-MB-231): > 100 µM (inactive)
- GI50 (HOP-62): 44.9 µM (inactive)
- GI50 (OVCAR-8): > 100 µM (inactive)
- GI50 (HCT-15): > 100 µM
- GI50 (ACHN): > 100 µM (inactive)
- GI50 (Malme-3M): > 100 µM (inactive)
- GI50 (HT-29): > 100 µM (inactive)
- GI50 (PC-3): > 100 µM (inactive)
- GI50 (SF-295): > 100 µM (inactive)
- GI50 (SW-620): > 100 µM (inactive)
- GI50 (M14): > 100 µM (inactive)
- GI50 (EKVX): > 100 µM (inactive)
- GI50 (SR): > 100 µM (inactive)
- GI50 (OVCAR-3): > 100 µM (inactive)
- GI50 (IGROV-1): > 100 µM (inactive)
- GI50 (OVCAR-4): > 100 µM (inactive)
- GI50 (NCI-H460): > 100 µM (inactive)
- GI50 (Hs-578T): 64.7 µM (inactive)
- GI50 (UACC-257): > 100 µM (inactive)
- GI50 (SNB-75): 45.7 µM (inactive)
- GI50 (LOX IMVI): > 100 µM (inactive)
- GI50 (NCI-H522): > 100 µM (inactive)
- GI50 (SK-MEL-5): > 100 µM (inactive)
- GI50 (SK-OV-3): > 100 µM (inactive)
- GI50 (SK-MEL-2): > 100 µM (inactive)
- GI50 (A549): > 100 µM (inactive)
- GI50 (HOP-92): 57.4 µM (inactive)
- GI50 (SF-268): > 100 µM (inactive)
- GI50 (SN12C): > 100 µM (inactive)
- GI50 (COLO 205): > 100 µM (inactive)
- GI50 (T47D): > 100 µM (inactive)
- GI50 (NCI/ADR-RES): > 100 µM (inactive)
